Patent US9226500B2, “Pesticidal compositions and processes related thereto” (Dow AgroSciences LLC, priority 2012, dated 2016)
One block for each compound: values may come before it.

Key:
[1] = system: Green Peach Aphid (Myzus persicae); assay: Bioassay on Green Peach Aphid (GPA), foliar spray on cabbage seedlings; format: in vivo; conditions: for pest or weed control at 200 µg/mL / pest or weed control at 200 ppm: Myzus persicae, 72 h, read-out: GPA Rating; for pest or weed control at 200 µg/mL: foliar, Table 5, Prophetic Compounds Subsequently Exemplified; for pest or weed control at 200 ppm: corrected % control (Abbott), 200 ppm foliar spray on cabbage seedlings, three days
Protocol: Certain molecules disclosed in this document were tested against GPA using procedures described in the following example. In the reporting of the results, the “GPA Rating Table” was used (See Table Section). Cabbage seedlings grown in 3-inch pots, with 2-3 small (3-5 cm) true leaves, were used as test substrate. The seedlings were infested with 20-50 GPA (wingless adult and nymph stages) one day prior to chemical application. Four pots with individual seedlings were used for each treatment. Test compounds (2 mg) were dissolved in 2 mL of acetone/MeOH (1:1) solvent, forming stock solutions of 1000 ppm test compound. The stock solutions were diluted 5× with 0.025% Tween 20 in water to obtain the solution at 200 ppm test compound. A hand-held aspirator-type sprayer was used for spraying a solution to both sides of […] leaves until runoff. Reference plants (solvent check) were sprayed with the diluent only containing 20% by volume of acetone/MeOH (1:1) solvent. Treated plants were held in a holding room for three days at approximately 25° C. and ambient relative humidity (RH) prior to grading. Evaluation was conducted by counting the number of live aphids per plant under a microscope. Percent Control was measured by using Abbott's correction formula (W. S. Abbott, “A Method of Computing the Effectiveness of an Insecticide” J. Econ. Entomol. 18 (1925), pp. 265-267) as follows. Corrected % Control=100*(X−Y)/X • where • X=No. of live aphids on solvent check plants and • Y=No. of live aphids on treated plants The results are indicated in the tables entitled “Table 3: Assay Results Part 1” and “Table 4: Assay Results Part 2” (See Table Section).

[2] = system: Corn Earworm (Helicoverpa zea); assay: Bioassay on Corn Earworm (CEW), 128-well diet tray assay; format: in vivo; conditions: Table 3, Assays Results Part 1
Protocol: (§1) Certain molecules disclosed in this document were tested against BAW, CEW and CL using procedures described in the following examples. In the reporting of the results, the “BAW & CEW & CL Rating Table” was used (See Table Section).
Bioassays on CEW (Helicoverpa zea)
Bioassays on CEW were conducted using a 128-well diet tray assay. One to five second instar CEW larvae were placed in each well (3 mL) of the diet tray that had been previously filled with 1 mL of artificial diet to which 50 μg/cm^2 of the test compound (dissolved in 50 μL of 90:10 acetone-water mixture) had been applied (to each of eight wells) and then allowed to dry. Trays were covered with a clear self-adhesive cover, and held at 25° C., 14:10 light-dark for five to seven days. Percent mortality was recorded for the larvae in each well; activity in the eight wells was then averaged. The results are indicated in the table entitled “Table 3: Assay Results Part 1” (See Table Section).

[3] = system: Cabbage Looper (Trichoplusia ni); assay: Bioassay on Cabbage Looper (CL), 128-well diet tray assay; format: in vivo; conditions: Table 5, Performed at 12.5 μg/cm^2, read-out: CL Rating
[4] = system: Beet Armyworm (Spodoptera exigua); assay: Bioassay on Beet Armyworm (BAW), 128-well diet tray assay; format: in vivo; conditions: Table 5, Performed at 12.5 μg/cm^2, read-out: BAW Rating
[5] = system: Beet Armyworm (Spodoptera exigua); assay: Bioassay on Beet Armyworm (BAW), 128-well diet tray assay; format: in vivo; conditions: Spodoptera exigua, 168 h; percent mortality of second instar larvae, 50 μg/cm^2 on artificial diet, five to seven days, 25° C.; read-out: BAW Rating
[6] = system: Cabbage Looper (Trichoplusia ni); assay: Bioassay on Cabbage Looper (CL), 128-well diet tray assay; format: in vivo; conditions: 168 h, percent mortality of second instar larvae, 50 μg/cm^2 on artificial diet, five to seven days, 25° C., read-out: CL Rating
Protocol: as §1
Bioassays on CL (Trichoplusia ni)
Bioassays on CL were conducted using a 128-well diet tray assay. One to five second instar CL larvae were placed in each well (3 mL) of the diet tray that had been previously filled with 1 mL of artificial diet to which 50 μg/cm^2 of the test compound (dissolved in 50 μL of 90:10 acetone-water mixture) had been applied (to each of eight wells) and then allowed to dry. Trays were covered with a clear self-adhesive cover, and held at 25° C., 14:10 light-dark for five to seven days. Percent mortality was recorded for the larvae in each well; activity in the eight wells was then averaged.
“Table 4: Assay Results Part 2” (See Table Section).

SMILES: CC(NC(=O)c1ccc(/C=C/C(c2cc(Cl)c(Cl)c(Cl)c2)C(F)(F)F)cc1Br)C(=O)NCCC(F)(F)F (centres unmarked) [Compound P1631A]
- pest or weed control at 200 µg/mL [1]: 0 to 80%

SMILES: O=C(CNC(=O)c1ccc(/C=C/C(c2cc(Cl)c(Cl)c(Cl)c2)C(F)(F)F)cc1C(F)(F)F)NCC(F)F (centres unmarked) [Compound P1566]
- pest or weed control at 200 µg/mL [1]: 80 to 100%

SMILES: O=C(NCc1ccc(/C=C/C(c2cc(Cl)c(Cl)c(Cl)c2)C(F)(F)F)cc1Cl)Oc1ccccc1Cl (centres unmarked) [CC40]
- CEW Rating [2]: A (50-100)

SMILES: O=C(CNC(=O)c1ccc(/C=C/C(c2cc(Br)cc(Br)c2)C(F)(F)F)cc1Br)NCC(F)(F)F (centres unmarked) [Compound P1969]
- pest or weed control at 12.5 µg/cm2, 12.5 µg/cm2 [3]: 50 to 100%
- pest or weed control at 12.5 µg/cm2, 12.5 µg/cm2 [4]: 50 to 100%

SMILES: O=C(CNC(=O)c1ccc(/C=C/C(c2cc(Cl)cc(C(F)(F)F)c2)C(F)(F)F)cc1Br)NCC(F)(F)F (centres unmarked) [Compound P1411]
- pest or weed control at 200 µg/mL [1]: 0 to 80%

SMILES: CCNC(=O)[C@@H](C)NC(=O)c1ccc(/C=C/C(c2cc(Cl)c(Cl)c(Cl)c2)C(F)(F)F)cc1C (some centres unmarked) [Compound P1624]
- pest or weed control at 200 µg/mL [1]: 80 to 100%

- melting point: 110 to 112 °C
SMILES: NC(=O)c1ccc(/C=C/C(c2cc(Cl)cc(Cl)c2)C(F)(F)F)cc1 (centres unmarked) [AC2]

SMILES: C[C@@H](NC(=O)c1ccc(/C=C/[C@H](c2cc(Cl)c(Cl)c(Cl)c2)C(F)(F)F)cc1C(F)(F)F)C(=O)NCC(F)(F)F [Compound F20A, N—((R)-1-Oxo-1-((2,2,2-trifluoroethyl)amino)propan-2-yl)-4-((E)-4,4,4-trifluoro-3-(3,4,5-trichlorophenyl)but-1-en-1-yl)-2-(trifluoromethyl)benzamide]
- pest or weed control at 200 ppm [1]: 80 to 100%
- pest or weed control at 50 µg/cm2, 50 µg/cm2 [5]: 50 to 100%
- pest or weed control at 50 µg/cm2, 50 µg/cm2 [6]: 50 to 100%

SMILES: CC(C)(NC(=O)c1ccc(/C=C/C(c2cc(Cl)c(Cl)c(Cl)c2)C(F)(F)F)cc1Br)C(=O)NCC(F)(F)F (centres unmarked) [Compound F1, (E)-2-Bromo-N-(2-methyl-1-oxo-1-((2,2,2-trifluoroethyl)amino)propan-2-yl)-4-(4,4,4-trifluoro-3-(3,4,5-trichlorophenyl)but-1-en-1-yl)benzamide]
- pest or weed control at 200 ppm [1]: 0 to 80%
- pest or weed control at 50 µg/cm2, 50 µg/cm2 [5]: 50 to 100%
- pest or weed control at 50 µg/cm2, 50 µg/cm2 [6]: 50 to 100%

SMILES: C[C@@H](NC(=O)c1ccc(/C=C/C(c2cc(Cl)c(Cl)c(Cl)c2)C(F)(F)F)cc1Br)C(=S)NCC(F)(F)F (some centres unmarked) [Compound F27]
- pest or weed control at 50 µg/cm2, 50 µg/cm2 [5]: 50 to 100%
- pest or weed control at 50 µg/cm2, 50 µg/cm2 [6]: 50 to 100%

SMILES: CCC(NC(=O)c1ccc(/C=C/C(c2cc(Cl)c(Cl)c(Cl)c2)C(F)(F)F)cc1Br)C(=O)NCC(F)(F)F (centres unmarked) [Compound F8A]
- pest or weed control at 50 µg/cm2, 50 µg/cm2 [5]: 50 to 100%
- pest or weed control at 50 µg/cm2, 50 µg/cm2 [6]: 50 to 100%

SMILES: C[C@@H](NC(=O)c1ccc(/C=C/C(c2cc(Cl)c(Cl)c(Cl)c2)C(F)(F)F)cc1Cl)C(=O)NCC(F)(F)F (some centres unmarked) [Compound F25]
- pest or weed control at 50 µg/cm2, 50 µg/cm2 [5]: 50 to 100%
- pest or weed control at 50 µg/cm2, 50 µg/cm2 [6]: 50 to 100%

SMILES: CC[C@H](NC(=O)c1ccc(/C=C/C(c2cc(Cl)c(Cl)c(Cl)c2)C(F)(F)F)cc1C(F)(F)F)C(=O)NCC(F)(F)F (some centres unmarked) [Compound F16]
- pest or weed control at 50 µg/cm2, 50 µg/cm2 [5]: 50 to 100%
- pest or weed control at 50 µg/cm2, 50 µg/cm2 [6]: 50 to 100%

SMILES: C[C@@H](NC(=O)c1ccc(/C=C/C(c2cc(Cl)c(Cl)c(Cl)c2)C(F)(F)F)cc1Cl)C(=S)NCC(F)(F)F (some centres unmarked) [Compound F30]
- pest or weed control at 50 µg/cm2, 50 µg/cm2 [5]: 50 to 100%
- pest or weed control at 50 µg/cm2, 50 µg/cm2 [6]: 50 to 100%

SMILES: CC(C)(NC(=O)c1ccc(/C=C/C(c2cc(Cl)c(Cl)c(Cl)c2)C(F)(F)F)cc1C(F)(F)F)C(=O)NCC(F)(F)F (centres unmarked) [Compound F4]
- pest or weed control at 50 µg/cm2, 50 µg/cm2 [5]: 50 to 100%
- pest or weed control at 50 µg/cm2, 50 µg/cm2 [6]: 50 to 100%

SMILES: C[C@@H](NC(=O)c1ccc(/C=C/C(c2cc(C(F)(F)F)cc(C(F)(F)F)c2)C(F)(F)F)cc1Br)C(=O)NCC(F)(F)F (some centres unmarked) [Compound F14]
- pest or weed control at 50 µg/cm2, 50 µg/cm2 [5]: 50 to 100%
- pest or weed control at 50 µg/cm2, 50 µg/cm2 [6]: 50 to 100%

SMILES: C[C@@H](NC(=O)c1ccc(/C=C/C(c2cc(Cl)c(Cl)c(Cl)c2)C(F)(F)F)cc1C(F)(F)F)C(=O)NCC(F)(F)F (mixture of isomers) [Compound F20]
- pest or weed control at 50 µg/cm2, 50 µg/cm2 [5]: 50 to 100%
- pest or weed control at 50 µg/cm2, 50 µg/cm2 [6]: 50 to 100%

SMILES: C[C@@H](NC(=O)c1ccc(/C=C/C(c2cc(Cl)c(Cl)c(Cl)c2)C(F)(F)F)cc1Br)C(=O)NCC(F)(F)F (some centres unmarked) [Compound F6]
- pest or weed control at 50 µg/cm2, 50 µg/cm2 [5]: 50 to 100%
- pest or weed control at 50 µg/cm2, 50 µg/cm2 [6]: 50 to 100%

SMILES: C[C@@H](NC(=O)c1ccc(/C=C/C(c2cc(F)cc(Br)c2)C(F)(F)F)cc1Br)C(=O)NCC(F)(F)F (some centres unmarked) [Compound P298]
- pest or weed control at 200 µg/mL [1]: 0 to 80%

SMILES: C[C@@H](NC(=O)c1ccc(/C=C/C(c2cc(Br)cc(Br)c2)C(F)(F)F)cc1C(F)(F)F)C(=O)NCC(F)(F)F (some centres unmarked) [Compound F21]
- pest or weed control at 50 µg/cm2, 50 µg/cm2 [5]: 50 to 100%
- pest or weed control at 50 µg/cm2, 50 µg/cm2 [6]: 50 to 100%

SMILES: C[C@H](NC(=O)c1ccc(/C=C/C(c2cc(Cl)c(Cl)c(Cl)c2)C(F)(F)F)cc1C(F)(F)F)C(=O)NCC(F)(F)F (some centres unmarked) [Compound F18]
- pest or weed control at 50 µg/cm2, 50 µg/cm2 [5]: 50 to 100%
- pest or weed control at 50 µg/cm2, 50 µg/cm2 [6]: 50 to 100%

SMILES: C[C@@H](NC(=O)c1ccc(/C=C/C(c2cc(Cl)c(Cl)c(Cl)c2)C(F)(F)C(F)(F)F)cc1C(F)(F)F)C(=O)NCC(F)(F)F (some centres unmarked) [Compound P1601]
- pest or weed control at 200 µg/mL [1]: 0 to 80%

SMILES: CC(C)(NC(=O)c1ccc(/C=C/C(c2cc(Cl)c(Cl)c(Cl)c2)C(F)(F)F)cc1Cl)C(=O)NCC(F)(F)F (centres unmarked) [Compound F2]
- pest or weed control at 50 µg/cm2, 50 µg/cm2 [5]: 50 to 100%
- pest or weed control at 50 µg/cm2, 50 µg/cm2 [6]: 50 to 100%

SMILES: CC[C@H](NC(=O)c1ccc(/C=C/C(c2cc(Cl)c(Cl)c(Cl)c2)C(F)(F)F)cc1Br)C(=O)NCC(F)(F)F (some centres unmarked) [Compound F8]
- pest or weed control at 50 µg/cm2, 50 µg/cm2 [5]: 50 to 100%
- pest or weed control at 50 µg/cm2, 50 µg/cm2 [6]: 50 to 100%

SMILES: O=C(NCc1ccc(/C=C/C(c2cc(Cl)c(Cl)c(Cl)c2)C(F)(F)F)cc1C(F)(F)F)c1cccnc1 (centres unmarked) [CC23]
- GPA Rating ([1]; Table 3, Assays Results Part 1): B (More than 0-Less than 80)
- CEW Rating [2]: A (50-100)
